From ChEMBL document CHEMBL1201862, “PubChem BioAssay data set” (2004)
The source made the active and inactive calls.

Experiments:
[1] = NIH-3T3 fibroblast cytotoxicity, dose response, cytotoxicity control, cell-based, fluorescence, Alamar Blue, secondary assay (AID 2327); type: functional;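 further: NIH-3T3 mouse fibroblasts cultured with fluconazole at 8 µg/mL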
[2] = C. albicans growth with fluconazole, confirmation, fluorescence, retest (AID 2467); type: functional, cell-based
Cytochrome P450 2D6 = Cytochrome P450 2D6 (Homo sapiens, UniProt P10635);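 further: CYP2D6 member of a cytochrome P450 panel assay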
Cytochrome P450 3A4 = Cytochrome P450 3A4 (Homo sapiens, UniProt P08684);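 further: CYP3A4 tested as one member of a cytochrome P450 panel screen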
Genome polyprotein = Genome polyprotein (dengue virus type 2, UniProt P29990); assay: Dengue-2 NS5 methyltransferase inhibitors, primary screen, biochemical, confirmation dose response (AID 588689); type: functional
INS1 = assay: beta cell apoptosis inhibitors, cytokine rescue, dose response, luminescence, retest (AID 449756); type: functional, cell-based; settings: Rattus norvegicus;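 further: cell death triggered by IL-1 beta plus TNF-alpha plus IFN-gamma mixture; protective hits raise ATP signal compared with cytokine alone wells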
[3] = target: T1, Replicative DNA helicase DnaB (Mycobacterium tuberculosis, UniProt P9WMR3); assay: DnaB intein splicing inhibitors, dose response, biochemical, cell-free fluorescence (AID 449749); type: functional
T1 sequence (P9WMR3 whole entry): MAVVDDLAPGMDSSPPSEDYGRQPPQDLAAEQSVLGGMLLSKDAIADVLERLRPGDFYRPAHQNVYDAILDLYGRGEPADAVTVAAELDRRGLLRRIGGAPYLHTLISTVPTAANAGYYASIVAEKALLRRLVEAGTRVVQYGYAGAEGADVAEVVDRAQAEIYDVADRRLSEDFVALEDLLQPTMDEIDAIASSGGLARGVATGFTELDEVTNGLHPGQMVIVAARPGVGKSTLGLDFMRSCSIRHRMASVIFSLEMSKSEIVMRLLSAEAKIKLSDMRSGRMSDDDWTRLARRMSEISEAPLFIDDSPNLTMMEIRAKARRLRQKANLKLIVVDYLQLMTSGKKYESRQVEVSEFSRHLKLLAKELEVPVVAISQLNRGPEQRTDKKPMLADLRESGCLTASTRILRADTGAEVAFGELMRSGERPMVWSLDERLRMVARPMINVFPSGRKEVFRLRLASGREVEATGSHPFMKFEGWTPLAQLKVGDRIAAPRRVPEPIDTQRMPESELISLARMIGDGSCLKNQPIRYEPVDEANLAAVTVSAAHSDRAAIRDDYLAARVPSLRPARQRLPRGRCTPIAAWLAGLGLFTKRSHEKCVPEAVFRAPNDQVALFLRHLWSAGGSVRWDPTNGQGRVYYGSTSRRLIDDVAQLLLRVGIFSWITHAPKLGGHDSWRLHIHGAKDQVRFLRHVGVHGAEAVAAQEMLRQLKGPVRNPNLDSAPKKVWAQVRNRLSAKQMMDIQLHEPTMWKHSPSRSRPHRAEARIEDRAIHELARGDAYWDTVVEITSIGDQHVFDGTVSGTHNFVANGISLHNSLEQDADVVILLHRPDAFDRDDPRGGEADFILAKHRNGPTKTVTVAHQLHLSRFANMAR

Protein RecA = target: T2, Protein RecA (Mycobacterium tuberculosis, UniProt P9WHJ3); assay: Fluorescence Cell-Free Homogeneous Dose Retest to Identify Inhibitors of RecA-Intein Splicing Activity. [Related pubchem assays (depositor defined):AID2097, AID2223, AID489010, AID492950]; type: functional
T2 sequence (P9WHJ3 whole entry): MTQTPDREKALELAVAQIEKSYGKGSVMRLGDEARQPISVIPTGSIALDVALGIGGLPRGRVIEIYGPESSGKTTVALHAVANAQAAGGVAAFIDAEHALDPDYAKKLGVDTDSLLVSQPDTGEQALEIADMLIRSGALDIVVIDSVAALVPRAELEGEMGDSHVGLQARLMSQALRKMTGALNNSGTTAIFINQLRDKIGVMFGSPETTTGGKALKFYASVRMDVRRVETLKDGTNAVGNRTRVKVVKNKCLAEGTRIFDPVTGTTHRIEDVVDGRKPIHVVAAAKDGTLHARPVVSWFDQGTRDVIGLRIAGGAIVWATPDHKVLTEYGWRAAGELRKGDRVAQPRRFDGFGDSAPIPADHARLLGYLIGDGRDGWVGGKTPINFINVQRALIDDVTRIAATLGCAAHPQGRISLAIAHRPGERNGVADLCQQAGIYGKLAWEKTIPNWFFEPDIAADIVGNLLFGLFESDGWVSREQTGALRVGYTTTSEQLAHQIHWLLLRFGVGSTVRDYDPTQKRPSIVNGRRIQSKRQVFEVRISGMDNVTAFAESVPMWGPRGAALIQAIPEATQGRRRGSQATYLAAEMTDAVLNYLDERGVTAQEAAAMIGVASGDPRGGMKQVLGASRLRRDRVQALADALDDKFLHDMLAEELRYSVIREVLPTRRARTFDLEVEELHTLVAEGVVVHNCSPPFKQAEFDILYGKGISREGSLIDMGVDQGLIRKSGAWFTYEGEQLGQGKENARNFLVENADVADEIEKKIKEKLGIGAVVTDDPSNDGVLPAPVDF

Cytochrome P450 2C9 = Cytochrome P450 2C9 (Homo sapiens, UniProt P11712)
Cytochrome P450 1A2 = target: T3, Cytochrome P450 1A2 (Homo sapiens, UniProt P05177);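 further: PubChem cytochrome P450 panel assay, CYP1A2 panel member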
T3 sequence (P05177 whole entry): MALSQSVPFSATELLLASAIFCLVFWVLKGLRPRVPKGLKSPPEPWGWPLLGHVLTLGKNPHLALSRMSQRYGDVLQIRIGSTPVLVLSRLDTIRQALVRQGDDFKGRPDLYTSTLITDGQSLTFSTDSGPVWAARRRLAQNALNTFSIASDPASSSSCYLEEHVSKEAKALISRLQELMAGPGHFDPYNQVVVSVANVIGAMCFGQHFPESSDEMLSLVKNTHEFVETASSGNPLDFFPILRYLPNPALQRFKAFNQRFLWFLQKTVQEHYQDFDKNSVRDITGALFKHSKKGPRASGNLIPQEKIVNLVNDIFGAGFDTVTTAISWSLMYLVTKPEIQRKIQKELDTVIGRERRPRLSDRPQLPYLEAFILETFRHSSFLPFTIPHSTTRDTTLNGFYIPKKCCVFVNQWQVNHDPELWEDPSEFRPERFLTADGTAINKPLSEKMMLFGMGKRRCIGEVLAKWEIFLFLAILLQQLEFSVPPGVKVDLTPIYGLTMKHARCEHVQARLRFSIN

[4] = target: FAD-linked sulfhydryl oxidase ALR (Homo sapiens, UniProt P55789); assay: inhibitors of human ALR sulfhydryl oxidase, dose response, biochemical, H2O2 detection, luminescence, cherry-pick (AID 493248)
[5] = HEp-2 cell cytotoxicity, dose response, cytotoxicity control for RSV inhibitor project, HTS (AID 2410); type: functional; settings: human respiratory syncytial virus
Cytochrome P450 2C19 = Cytochrome P450 2C19 (Homo sapiens, UniProt P33261); assay: Cytochrome panel assay with activity outcomes. Panel member name: p450-cyp2c19 Compounds with AC50 equal or less than 10 uM are considered active; type: functional; settings: read-out: AC50
[6] = target: T4, RNA-binding protein pos-1 (Caenorhabditis elegans, UniProt G5EF15); assay: inhibitors of POS-1/mex-3 RNA binding, dose response, biochemical, fluorescence polarization (AID 1964);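 further: purified POS-1 fused to maltose binding protein made in E. coli; potency of compounds blocking POS-1 binding to fluorescent RNA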
T4 sequence (G5EF15 whole entry): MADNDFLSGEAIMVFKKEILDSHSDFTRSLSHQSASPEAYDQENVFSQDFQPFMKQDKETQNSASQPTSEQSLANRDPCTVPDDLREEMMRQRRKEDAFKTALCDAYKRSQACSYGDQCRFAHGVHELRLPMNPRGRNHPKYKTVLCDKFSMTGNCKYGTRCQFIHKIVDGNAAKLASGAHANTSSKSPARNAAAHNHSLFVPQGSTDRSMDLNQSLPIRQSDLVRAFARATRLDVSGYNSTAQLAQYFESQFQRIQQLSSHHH

[7] = target: T5, Zinc finger protein mex-5 (Caenorhabditis elegans, UniProt Q9XUB2); assay: MEX-5/TCR-2 RNA interaction inhibitors, dose response, biochemical, C. elegans, fluorescence polarization (AID 1960)
T5 sequence (Q9XUB2 whole entry): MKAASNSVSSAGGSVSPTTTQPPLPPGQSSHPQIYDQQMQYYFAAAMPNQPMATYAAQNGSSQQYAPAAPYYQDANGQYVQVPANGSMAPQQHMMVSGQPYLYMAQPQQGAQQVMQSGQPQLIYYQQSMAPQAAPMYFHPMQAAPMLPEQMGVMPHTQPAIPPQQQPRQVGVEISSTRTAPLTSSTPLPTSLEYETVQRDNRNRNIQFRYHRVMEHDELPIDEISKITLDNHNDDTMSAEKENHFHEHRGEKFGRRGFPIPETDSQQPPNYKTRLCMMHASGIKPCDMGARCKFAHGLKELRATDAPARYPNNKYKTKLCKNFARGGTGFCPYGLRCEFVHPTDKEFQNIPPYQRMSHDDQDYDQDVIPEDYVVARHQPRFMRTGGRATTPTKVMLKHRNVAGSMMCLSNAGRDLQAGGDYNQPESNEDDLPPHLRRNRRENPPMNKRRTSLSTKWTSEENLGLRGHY

Chain of Cytochrome P450 2D6 (P10635 whole entry): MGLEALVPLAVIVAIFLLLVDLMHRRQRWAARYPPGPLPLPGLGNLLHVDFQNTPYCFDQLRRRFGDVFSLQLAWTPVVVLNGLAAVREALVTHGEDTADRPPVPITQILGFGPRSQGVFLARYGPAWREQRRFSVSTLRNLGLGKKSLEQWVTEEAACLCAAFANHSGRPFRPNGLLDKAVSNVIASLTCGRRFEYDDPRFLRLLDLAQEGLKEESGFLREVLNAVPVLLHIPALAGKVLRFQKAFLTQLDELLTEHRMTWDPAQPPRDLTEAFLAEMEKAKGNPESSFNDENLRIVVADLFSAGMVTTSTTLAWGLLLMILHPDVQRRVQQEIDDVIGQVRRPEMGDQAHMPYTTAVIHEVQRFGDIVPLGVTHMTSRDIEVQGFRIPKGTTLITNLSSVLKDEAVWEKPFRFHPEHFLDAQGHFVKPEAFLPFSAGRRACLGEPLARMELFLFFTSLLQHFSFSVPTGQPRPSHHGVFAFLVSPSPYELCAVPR
Chain of Cytochrome P450 3A4 (P08684 whole entry): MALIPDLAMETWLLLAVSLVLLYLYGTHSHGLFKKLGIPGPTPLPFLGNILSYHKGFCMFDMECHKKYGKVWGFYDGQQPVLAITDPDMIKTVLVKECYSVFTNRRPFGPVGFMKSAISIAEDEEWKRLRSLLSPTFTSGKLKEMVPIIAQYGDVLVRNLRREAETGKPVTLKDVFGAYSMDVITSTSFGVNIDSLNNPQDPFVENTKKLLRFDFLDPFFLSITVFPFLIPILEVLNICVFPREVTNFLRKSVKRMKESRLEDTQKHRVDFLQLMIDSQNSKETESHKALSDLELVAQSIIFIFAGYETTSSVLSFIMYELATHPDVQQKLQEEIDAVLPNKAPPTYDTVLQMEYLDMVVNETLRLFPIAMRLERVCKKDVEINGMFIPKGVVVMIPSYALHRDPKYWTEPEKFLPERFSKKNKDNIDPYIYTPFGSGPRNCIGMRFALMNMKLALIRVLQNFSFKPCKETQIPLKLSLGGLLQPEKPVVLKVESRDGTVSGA
Chain of Genome polyprotein (P29990 2492-3391 limits assumed): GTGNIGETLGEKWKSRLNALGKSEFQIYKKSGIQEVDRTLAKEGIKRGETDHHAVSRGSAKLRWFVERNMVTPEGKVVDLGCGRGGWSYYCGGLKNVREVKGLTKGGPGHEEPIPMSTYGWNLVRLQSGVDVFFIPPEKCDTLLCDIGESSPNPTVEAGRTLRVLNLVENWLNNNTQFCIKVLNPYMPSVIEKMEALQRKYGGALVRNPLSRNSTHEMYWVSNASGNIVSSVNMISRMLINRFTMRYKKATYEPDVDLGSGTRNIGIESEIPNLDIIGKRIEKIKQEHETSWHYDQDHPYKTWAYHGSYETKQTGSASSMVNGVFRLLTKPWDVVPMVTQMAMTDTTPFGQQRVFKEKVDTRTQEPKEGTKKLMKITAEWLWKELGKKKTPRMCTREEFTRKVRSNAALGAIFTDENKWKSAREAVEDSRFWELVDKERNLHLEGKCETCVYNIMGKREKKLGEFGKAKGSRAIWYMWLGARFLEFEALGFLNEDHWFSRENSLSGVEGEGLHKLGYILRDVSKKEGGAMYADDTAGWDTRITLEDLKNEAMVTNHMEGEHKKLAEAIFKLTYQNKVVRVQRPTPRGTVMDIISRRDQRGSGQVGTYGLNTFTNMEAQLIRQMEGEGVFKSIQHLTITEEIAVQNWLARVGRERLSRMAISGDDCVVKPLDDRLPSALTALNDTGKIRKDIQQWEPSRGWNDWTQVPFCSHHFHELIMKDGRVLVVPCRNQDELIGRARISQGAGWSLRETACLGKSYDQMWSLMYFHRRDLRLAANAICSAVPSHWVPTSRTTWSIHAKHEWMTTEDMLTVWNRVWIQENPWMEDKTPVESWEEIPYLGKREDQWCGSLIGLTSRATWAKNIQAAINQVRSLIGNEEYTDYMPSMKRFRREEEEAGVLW
Chain of Cytochrome P450 2C9 (P11712 whole entry): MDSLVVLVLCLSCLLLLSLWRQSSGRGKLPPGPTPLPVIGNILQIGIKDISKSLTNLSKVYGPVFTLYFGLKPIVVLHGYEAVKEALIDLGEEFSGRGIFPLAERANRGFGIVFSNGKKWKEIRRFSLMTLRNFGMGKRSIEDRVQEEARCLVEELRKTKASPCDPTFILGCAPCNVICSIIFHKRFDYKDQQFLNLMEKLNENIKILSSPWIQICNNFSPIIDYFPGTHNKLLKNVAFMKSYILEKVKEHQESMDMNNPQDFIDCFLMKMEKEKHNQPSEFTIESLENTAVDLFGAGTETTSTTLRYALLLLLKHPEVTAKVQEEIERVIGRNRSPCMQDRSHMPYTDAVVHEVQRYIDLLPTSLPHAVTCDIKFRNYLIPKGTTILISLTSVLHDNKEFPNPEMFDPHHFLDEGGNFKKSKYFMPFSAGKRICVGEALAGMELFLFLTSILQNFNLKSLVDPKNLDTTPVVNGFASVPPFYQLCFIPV
Chain of FAD-linked sulfhydryl oxidase ALR (P55789 whole entry): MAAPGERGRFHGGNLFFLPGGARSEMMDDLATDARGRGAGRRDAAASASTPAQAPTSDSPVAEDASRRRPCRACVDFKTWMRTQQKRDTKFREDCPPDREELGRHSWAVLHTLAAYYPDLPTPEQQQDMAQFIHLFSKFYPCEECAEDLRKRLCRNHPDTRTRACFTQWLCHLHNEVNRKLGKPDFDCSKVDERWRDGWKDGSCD
Chain of Cytochrome P450 2C19 (P33261 whole entry, the tested form may be a part): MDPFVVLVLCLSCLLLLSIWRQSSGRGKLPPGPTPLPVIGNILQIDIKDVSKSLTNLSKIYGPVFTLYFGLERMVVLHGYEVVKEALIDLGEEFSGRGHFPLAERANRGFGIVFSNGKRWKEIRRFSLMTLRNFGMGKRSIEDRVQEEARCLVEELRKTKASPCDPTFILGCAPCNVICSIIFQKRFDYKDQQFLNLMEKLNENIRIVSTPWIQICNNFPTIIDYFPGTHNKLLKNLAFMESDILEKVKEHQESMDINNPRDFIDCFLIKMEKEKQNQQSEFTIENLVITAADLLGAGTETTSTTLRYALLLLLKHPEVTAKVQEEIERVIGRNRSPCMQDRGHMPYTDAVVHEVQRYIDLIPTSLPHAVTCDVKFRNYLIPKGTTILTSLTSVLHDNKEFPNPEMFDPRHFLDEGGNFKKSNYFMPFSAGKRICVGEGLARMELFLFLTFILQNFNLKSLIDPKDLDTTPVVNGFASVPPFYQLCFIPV

## O=C(CN1C(=O)/C(=C/c2ccccc2)SC1=S)NNC(=O)c1ccccc1O
[1]
  EC50: > 160 µM (inconclusive)
[2]
  EC50: > 38 µM (not active)

## CCc1ccc(N(C(=O)c2ccoc2C)C(C(=O)NC2CCCC2)c2ccc(OC)cc2)cc1 (stereo not given)
Cytochrome P450 2D6
  AC50: 15.8 µM (inconclusive)
Cytochrome P450 3A4
  AC50: 1.26 µM (inconclusive)

## O=C1/C(=C/c2cccc(F)c2)SC(=S)N1NS(=O)(=O)c1ccccc1
Genome polyprotein
  IC50: 30.6 µM (active)

## O=C(NCc1ccccc1Cl)c1ccc2c(=O)n(CCCN3CCCC3=O)c(=S)[nH]c2c1
Cytochrome P450 2D6
  AC50: 22.4 µM (inconclusive)
Cytochrome P450 3A4
  AC50: 15.8 µM (inconclusive)

## O=C(c1ccco1)N1CCN(c2ncnc3c(-c4ccccc4)nsc23)CC1
[1]
  EC50: 108 µM (active)
[2]
  EC50: 9.83 µM (active)

## CN(Cc1ccccc1)C(=O)c1nc2ccccn2c1CN1CCCC1c1nccs1 (stereo not given)
INS1
  AC50: > 260 µM (inactive)

## Cc1cc(C2C(C#N)=C(N)Oc3[nH]nc(C)c32)c(C)s1 (stereo not given)
[3]
  AC50: 10.9 µM (active)
Protein RecA
  EC50: 3.32 µM (active)
Cytochrome P450 3A4
  AC50: 7.08 µM (inconclusive)
Cytochrome P450 2C9
  AC50: 10 µM (inconclusive)

## O=C(c1ccco1)N1CCC[C@@]2(CCN(c3ccccc3)C2)C1
Cytochrome P450 2D6
  AC50: 20 µM (inconclusive)

## Cc1cccc(N2CC(C(=O)OCC(=O)c3ccc(OC(=O)c4cccs4)cc3)CC2=O)c1C (stereo not given)
[3]
  AC50: 97.7 µM (active)
Protein RecA
  EC50: 25 µM (active)

## CCOC(=O)c1nc(C)n(-c2ccc(Cl)cc2)n1
[3]
  AC50: > 380 µM (inactive)
Protein RecA
  EC50: > 380 µM (inactive)

## CCn1c2ccccc2c2cc(/N=C3/SC(CC(=O)Nc4ccccc4)C(=O)N3C)ccc21 (stereo not given)
Cytochrome P450 2D6
  AC50: 7.08 µM (inconclusive)
Cytochrome P450 1A2
  AC50: 3.16 µM (inconclusive)

## O=C1NN(c2ccc(Cl)c(Cl)c2)C(=O)/C1=C/c1ccc(-c2ccccc2C(=O)O)o1
[1]
  EC50: > 160 µM (inactive)
[4]
  AC50: 0.26 µM (active)
Genome polyprotein
  IC50: 7.41 µM (active)

## COC(=O)N/N=C/c1ccc(-c2cc(Cl)cc(Cl)c2)o1
[1]
  EC50: > 150 µM (inactive)
[5]
  CC50: > 50 µM (active)
[2]
  EC50: 5.04 µM (active)

## O[C@@H](C1=C/C(=C\c2ccncc2)c2ccccc21)c1ccncc1
Cytochrome P450 2D6
  AC50: 1.58 µM (inconclusive)

## COc1ccccc1CN1CCCC2(CCN(C(=O)c3c(C)noc3C)CC2)C1
Cytochrome P450 2D6
  AC50: 12.6 µM (inconclusive)
Cytochrome P450 3A4
  AC50: 10 µM (inconclusive)

## CCn1c(SCC(=O)N2CCN(S(=O)(=O)c3ccccc3)CC2)nnc1-c1cccs1
Cytochrome P450 2C19
  AC50: 22.4 µM (inconclusive)
Cytochrome P450 2D6
  AC50: 17.8 µM (inconclusive)

## CCOC(=O)C1CCN(C(=O)CCC(=O)NNc2nc3ccccc3c3nc(C)nn23)CC1
[6]
  EC50: 53.9 µM (active)
[7]
  EC50: 1.41 µM (active)

## Cc1noc(C)c1C(=O)OCC(=O)NC(c1ccccc1)c1ccccc1
Cytochrome P450 2D6
  AC50: 3.16 µM (inconclusive)

## CCc1ccc(C2C(C#N)=C(N)Oc3[nH]nc(CC(=O)OC)c32)cc1 (stereo not given)
[3]
  AC50: 13.8 µM (active)
Protein RecA
  EC50: 8.36 µM (active)

## CCOC(=O)c1ccc(NC(=O)NCc2cccnc2)cc1
INS1
  AC50: 2.09 µM (active)

## CC1=NN(c2ccc(Cl)cc2)C(=O)C1
[3]
  AC50: 2.74 µM (active)
Protein RecA
  EC50: 2.67 µM (active)

## CC1(C)CC(=O)C2=C(C1)OC(N)=C(C#N)C2c1cccc(OC(=O)c2ccco2)c1 (stereo not given)
[6]
  EC50: > 300 µM (not active)
[7]
  EC50: > 300 µM (not active)

## N=c1c(S(=O)(=O)c2ccc(Br)cc2)cc2c(=O)n3ccccc3nc2n1C1CCCCC1
[6]
  EC50: 9.42 µM (inconclusive)
[7]
  EC50: 8.8 µM (active)

## COc1cc(C(c2c(C)[nH][nH]c2=O)c2c(C)[nH][nH]c2=O)cc([N+](=O)[O-])c1O
[6]
  EC50: 7.63 µM (active)
[7]
  EC50: 4.74 µM (active)
[3]
  AC50: 0.42 µM (active)
Protein RecA
  EC50: 0.248 µM (active)

## O=S(=O)(O)c1cccc2cccc(Nc3ccccc3)c12
Genome polyprotein
  IC50: > 100 µM (active)

## CN1CCN(c2nc(-c3ccccc3C(F)(F)F)nc3ccccc23)CC1
Cytochrome P450 2D6
  AC50: 39.8 µM (inconclusive)
Cytochrome P450 3A4
  AC50: 20 µM (inconclusive)

## O=C(NNc1ccc(Cl)cc1)C1CCC1
[1]
  EC50: 48.3 µM (active)
[2]
  EC50: > 38 µM (not active)

## COc1ccc(N2C(=O)CC(N(CCc3ccccc3)C(=O)/C=C/C(=O)O)C2=O)cc1 (stereo not given)
[3]
  AC50: > 380 µM (inactive)
Protein RecA
  EC50: > 380 µM (inactive)
